This is an account of results in ChEMBL document CHEMBL1629651, “A novel insertion mutation in Streptomyces coelicolor ribosomal S12 protein results in paromomycin resistance and antibiotic overproduction” (2009).

Experiment [1] has as its system Streptomyces coelicolor. Kind of experiment: Antimicrobial activity against Streptomyces coelicolor 1147 after 48 hrs. The format is functional.
For experiment [2], the system named is Streptomyces coelicolor. Kind of experiment: Antimicrobial activity against streptomycin-resistant Streptomyces coelicolor KO-178 harboring rpsL K88E mutant gene after 48 hrs. The format is functional.
Experiment [3] has as its system Streptomyces coelicolor. Kind of experiment: Antimicrobial activity against paromomycin-resistant Streptomyces coelicolor KO-347 harboring rpsl P91S mutant gene after 48 hrs. The format is functional.
Experiment [4] relates to Streptomyces coelicolor. The experiment in a line: Antimicrobial activity against paromomycin-resistant Streptomyces coelicolor 92G harboring rpsL gene with inserted glycine at position 92 after 48 hrs. The format is functional.
In experiment [5] the test system is Streptomyces coelicolor. Kind of experiment: Antimicrobial activity against paromomycin-resistant Streptomyces coelicolor SP1 harboring rpsL A262G and C271T mutant gene after 48 hrs. The format is functional.
The test system of experiment [6] is Streptomyces coelicolor. Kind of experiment: Antimicrobial activity against paromomycin-resistant Streptomyces coelicolor SP2 harboring rpsL K88E mutant gene and inserted glycine at position 92 of the gene after 48 hrs. The format is functional.
The target in experiment [7] is T1, Small ribosomal subunit protein uS12 (Streptomyces coelicolor (strain ATCC BAA-471 / A3(2) / M145)) (UniProt P0A4A3).
T1 sequence (whole entry): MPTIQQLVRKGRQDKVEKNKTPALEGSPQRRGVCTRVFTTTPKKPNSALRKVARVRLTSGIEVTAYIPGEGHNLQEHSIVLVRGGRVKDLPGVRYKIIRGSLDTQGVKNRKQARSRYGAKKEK
The experiment in a line: Binding affinity to Streptomyces coelicolor 1147 30S ribosomal protein S12 assessed as inhibition of protein synthesis at 0.2 ug/ml by fluorescence assay.

The subject of experiment [8] is Streptomyces coelicolor. The experiment in a line: Binding affinity to Streptomyces coelicolor KO-178 30S ribosomal protein S12 K88E mutant assessed as inhibition of protein synthesis at 0.2 ug/ml by fluorescence assay.
Experiment [9] deals with Streptomyces coelicolor. The experiment in a line: Binding affinity to Streptomyces coelicolor KO-347 30S ribosomal ptotein S12 GI92 mutant assessed as inhibition of protein synthesis at 0.2 ug/ml by fluorescence assay.
Setting [10] is: Streptomyces coelicolor, 1147, 48 h.

Values after ≈ are worked out from the molar mass of the structure shown. Active and inactive are the calls of the source. The calls are words filed in the database; no cut-off is given here.

A word on the MIC: it is the lowest concentration found to suppress growth. Read a high MIC as a less susceptible organism. `NC[C@@H]1O[C@H](O[C@H]2[C@@H](O)[C@H](O[C@@H]3[C@@H](O)[C@H](N)C[C@H](N)[C@H]3O[C@H]3O[C@H](CN)[C@@H](O)[C@H](O)[C@H]3N)O[C@@H]2CO)[C@H](N)[C@@H](O)[C@@H]1O` [FRAMYCETIN]: the MIC came out at 0.3 µg/mL (≈ 0.488 µM) in the experiment on Streptomyces coelicolor [1] (setting [10]); 0.8 µg/mL (≈ 1.3 µM) with Streptomyces coelicolor [2] (KO-178, 48 h); 0.5 µg/mL (≈ 0.813 µM) with Streptomyces coelicolor [3] (KO-347, 48 h); 0.5 µg/mL (≈ 0.813 µM) against Streptomyces coelicolor [4]; 0.2 µg/mL (≈ 0.325 µM) in the experiment with Streptomyces coelicolor [5] (SP1, 48 h); 0.2 µg/mL (≈ 0.325 µM) in the experiment on Streptomyces coelicolor [6] (SP2, 48 h).
Turning to `CC(=O)O[C@H]1C[C@@]2(C)[C@@H](C[C@@H](O)[C@H]3[C@@]4(C)CC[C@@H](O)[C@@H](C)[C@@H]4CC[C@@]32C)/C1=C(\CCC=C(C)C)C(=O)O` [FUSIDIC ACID], the MIC with Streptomyces coelicolor [1] (setting [10]) stood at 50 µg/mL (≈ 96.8 µM); against Streptomyces coelicolor [2] (KO-178, 48 h) it was 50 µg/mL (≈ 96.8 µM); with Streptomyces coelicolor [3] (KO-347, 48 h), 50 µg/mL (≈ 96.8 µM); against Streptomyces coelicolor [4], 50 µg/mL (≈ 96.8 µM); against Streptomyces coelicolor [5] (SP1, 48 h), 20 µg/mL (≈ 38.7 µM); against Streptomyces coelicolor [6] (SP2, 48 h), 20 µg/mL (≈ 38.7 µM).
Consider `CN[C@@H]1[C@@H](O)[C@@H](O[C@@H]2[C@@H](O)[C@H](O[C@H]3O[C@H]([C@@H](C)O)[C@@H](O)[C@H](O)[C@H]3N)[C@@H](N)C[C@H]2N)OC[C@]1(C)O` [GENETICIN], for which the minimum inhibitory concentration (MIC) in the experiment with Streptomyces coelicolor [1] (setting [10]) stood at 0.3 µg/mL (≈ 0.604 µM); in the experiment on Streptomyces coelicolor [2] (KO-178, 48 h), 0.3 µg/mL (≈ 0.604 µM); in the experiment with Streptomyces coelicolor [3] (KO-347, 48 h), 0.3 µg/mL (≈ 0.604 µM); in the experiment on Streptomyces coelicolor [4] it was 1 µg/mL (≈ 2.01 µM); in the experiment on Streptomyces coelicolor [5] (SP1, 48 h) it was 0.5 µg/mL (≈ 1.01 µM); in the experiment with Streptomyces coelicolor [6] (SP2, 48 h), 0.5 µg/mL (≈ 1.01 µM).
On to `NC[C@H]1O[C@H](O[C@H]2[C@H](O)[C@@H](O[C@H]3O[C@H](CO)[C@@H](O)[C@H](N)[C@H]3O)[C@H](N)C[C@@H]2N)[C@H](O)[C@@H](O)[C@@H]1O` [KANAMYCIN], for which the MIC came out at 0.8 µg/mL (≈ 1.65 µM) with Streptomyces coelicolor [1] (setting [10]); 0.8 µg/mL (≈ 1.65 µM) in the experiment with Streptomyces coelicolor [2] (KO-178, 48 h); 0.5 µg/mL (≈ 1.03 µM) against Streptomyces coelicolor [3] (KO-347, 48 h); 1 µg/mL (≈ 2.06 µM) in the experiment on Streptomyces coelicolor [4]; 0.5 µg/mL (≈ 1.03 µM) against Streptomyces coelicolor [5] (SP1, 48 h); 0.5 µg/mL (≈ 1.03 µM) in the experiment with Streptomyces coelicolor [6] (SP2, 48 h).
For the compound `CCC[C@@H]1C[C@@H](C(=O)N[C@@H]([C@H]2O[C@H](SC)[C@H](O)[C@@H](O)[C@H]2O)[C@@H](C)O)N(C)C1` [LINCOMYCIN], the MIC with Streptomyces coelicolor [1] (setting [10]) came to 50 µg/mL (≈ 123 µM); against Streptomyces coelicolor [2] (KO-178, 48 h) it was 40 µg/mL (≈ 98.4 µM); in the experiment with Streptomyces coelicolor [3] (KO-347, 48 h), 50 µg/mL (≈ 123 µM); against Streptomyces coelicolor [4] it was 20 µg/mL (≈ 49.2 µM); against Streptomyces coelicolor [5] (SP1, 48 h), 40 µg/mL (≈ 98.4 µM); against Streptomyces coelicolor [6] (SP2, 48 h) it was 10 µg/mL (≈ 24.6 µM).
The term inhibition denotes how much of the control response was suppressed. For `NC[C@@H]1O[C@H](O[C@H]2[C@@H](O)[C@H](O[C@@H]3[C@@H](O)[C@H](N)C[C@H](N)[C@H]3O[C@H]3O[C@H](CO)[C@@H](O)[C@H](O)[C@H]3N)O[C@@H]2CO)[C@H](N)[C@@H](O)[C@@H]1O` [PAROMOMYCIN], the MIC in the experiment on Streptomyces coelicolor [1] (setting [10]) was determined as 0.1 µg/mL (≈ 0.162 µM); in the experiment on Streptomyces coelicolor [2] (KO-178, 48 h) it was 0.3 µg/mL (≈ 0.487 µM); in the experiment with Streptomyces coelicolor [3] (KO-347, 48 h), 0.8 µg/mL (≈ 1.3 µM); against Streptomyces coelicolor [4], 2 µg/mL (≈ 3.25 µM); with Streptomyces coelicolor [5] (SP1, 48 h) it was 2 µg/mL (≈ 3.25 µM); in the experiment on Streptomyces coelicolor [6] (SP2, 48 h), 3 µg/mL (≈ 4.87 µM). Further, the values for the inhibition (in experiment [7]; with Streptomyces coelicolor [8]) were 80% and more than 80%, respectively. Further, the inhibition result in the experiment on Streptomyces coelicolor [9] was “inactive”.
In the case of `CN[C@@H]1[C@H](O[C@H]2[C@H](O[C@H]3[C@H](O)[C@@H](O)[C@H](N=C(N)N)[C@@H](O)[C@@H]3N=C(N)N)O[C@@H](C)[C@]2(O)C=O)O[C@@H](CO)[C@H](O)[C@H]1O` [STREPTOMYCIN], the minimum inhibitory concentration (MIC) was 1 µg/mL (≈ 1.72 µM) in the experiment on Streptomyces coelicolor [1] (setting [10]); 100 µg/mL (≈ 172 µM) in the experiment with Streptomyces coelicolor [2] (KO-178, 48 h); 20 µg/mL (≈ 34.4 µM) in the experiment on Streptomyces coelicolor [3] (KO-347, 48 h); 20 µg/mL (≈ 34.4 µM) against Streptomyces coelicolor [4]; 200 µg/mL (≈ 344 µM) in the experiment with Streptomyces coelicolor [5] (SP1, 48 h); more than 200 µg/mL in the experiment on Streptomyces coelicolor [6] (SP2, 48 h).
Turning to `CN(C)[C@@H]1C(O)=C(C(N)=O)C(=O)[C@@]2(O)C(O)=C3C(=O)c4c(O)cccc4[C@@](C)(O)[C@H]3C[C@@H]12` [TETRACYCLINE], the MIC in the experiment with Streptomyces coelicolor [1] (setting [10]) was 10 µg/mL (≈ 22.5 µM); against Streptomyces coelicolor [2] (KO-178, 48 h), 10 µg/mL (≈ 22.5 µM); in the experiment with Streptomyces coelicolor [3] (KO-347, 48 h) it was 5 µg/mL (≈ 11.3 µM); in the experiment on Streptomyces coelicolor [4], 10 µg/mL (≈ 22.5 µM); in the experiment on Streptomyces coelicolor [5] (SP1, 48 h), 3 µg/mL (≈ 6.75 µM); with Streptomyces coelicolor [6] (SP2, 48 h) it was 3 µg/mL (≈ 6.75 µM).
Consider GENTAMICIN, for which the MIC is 0.1 µg/mL with Streptomyces coelicolor [1]; 0.1 µg/mL in the experiment with Streptomyces coelicolor [2]; 0.5 µg/mL with Streptomyces coelicolor [3]; 0.5 µg/mL against Streptomyces coelicolor [4]; 0.5 µg/mL against Streptomyces coelicolor [5]; 0.5 µg/mL against Streptomyces coelicolor [6].
